The source of these data is patent US8962641B2, “Pyrimidine-substituted pyrrolidine derivatives, pharmaceutical compositions and uses thereof” (Boehringer Ingelheim International GmbH, priority 2013, dated 2015).

In this assay the target is human ACC2 (Homo sapiens (Human), UniProt O00763). In words: ACC2 assay (spectrophotometric 384 well assay, NADH-linked kinetic method). The class given is biochemical. Conditions: hACC2 construct lacking 128 N-terminal amino acids; coupled lactate dehydrogenase/pyruvate kinase reaction, 340 nm, 25° C. The protocol: Spectrophotometric 384 Well Assay
Chain of human ACC2 (O00763 129-2458): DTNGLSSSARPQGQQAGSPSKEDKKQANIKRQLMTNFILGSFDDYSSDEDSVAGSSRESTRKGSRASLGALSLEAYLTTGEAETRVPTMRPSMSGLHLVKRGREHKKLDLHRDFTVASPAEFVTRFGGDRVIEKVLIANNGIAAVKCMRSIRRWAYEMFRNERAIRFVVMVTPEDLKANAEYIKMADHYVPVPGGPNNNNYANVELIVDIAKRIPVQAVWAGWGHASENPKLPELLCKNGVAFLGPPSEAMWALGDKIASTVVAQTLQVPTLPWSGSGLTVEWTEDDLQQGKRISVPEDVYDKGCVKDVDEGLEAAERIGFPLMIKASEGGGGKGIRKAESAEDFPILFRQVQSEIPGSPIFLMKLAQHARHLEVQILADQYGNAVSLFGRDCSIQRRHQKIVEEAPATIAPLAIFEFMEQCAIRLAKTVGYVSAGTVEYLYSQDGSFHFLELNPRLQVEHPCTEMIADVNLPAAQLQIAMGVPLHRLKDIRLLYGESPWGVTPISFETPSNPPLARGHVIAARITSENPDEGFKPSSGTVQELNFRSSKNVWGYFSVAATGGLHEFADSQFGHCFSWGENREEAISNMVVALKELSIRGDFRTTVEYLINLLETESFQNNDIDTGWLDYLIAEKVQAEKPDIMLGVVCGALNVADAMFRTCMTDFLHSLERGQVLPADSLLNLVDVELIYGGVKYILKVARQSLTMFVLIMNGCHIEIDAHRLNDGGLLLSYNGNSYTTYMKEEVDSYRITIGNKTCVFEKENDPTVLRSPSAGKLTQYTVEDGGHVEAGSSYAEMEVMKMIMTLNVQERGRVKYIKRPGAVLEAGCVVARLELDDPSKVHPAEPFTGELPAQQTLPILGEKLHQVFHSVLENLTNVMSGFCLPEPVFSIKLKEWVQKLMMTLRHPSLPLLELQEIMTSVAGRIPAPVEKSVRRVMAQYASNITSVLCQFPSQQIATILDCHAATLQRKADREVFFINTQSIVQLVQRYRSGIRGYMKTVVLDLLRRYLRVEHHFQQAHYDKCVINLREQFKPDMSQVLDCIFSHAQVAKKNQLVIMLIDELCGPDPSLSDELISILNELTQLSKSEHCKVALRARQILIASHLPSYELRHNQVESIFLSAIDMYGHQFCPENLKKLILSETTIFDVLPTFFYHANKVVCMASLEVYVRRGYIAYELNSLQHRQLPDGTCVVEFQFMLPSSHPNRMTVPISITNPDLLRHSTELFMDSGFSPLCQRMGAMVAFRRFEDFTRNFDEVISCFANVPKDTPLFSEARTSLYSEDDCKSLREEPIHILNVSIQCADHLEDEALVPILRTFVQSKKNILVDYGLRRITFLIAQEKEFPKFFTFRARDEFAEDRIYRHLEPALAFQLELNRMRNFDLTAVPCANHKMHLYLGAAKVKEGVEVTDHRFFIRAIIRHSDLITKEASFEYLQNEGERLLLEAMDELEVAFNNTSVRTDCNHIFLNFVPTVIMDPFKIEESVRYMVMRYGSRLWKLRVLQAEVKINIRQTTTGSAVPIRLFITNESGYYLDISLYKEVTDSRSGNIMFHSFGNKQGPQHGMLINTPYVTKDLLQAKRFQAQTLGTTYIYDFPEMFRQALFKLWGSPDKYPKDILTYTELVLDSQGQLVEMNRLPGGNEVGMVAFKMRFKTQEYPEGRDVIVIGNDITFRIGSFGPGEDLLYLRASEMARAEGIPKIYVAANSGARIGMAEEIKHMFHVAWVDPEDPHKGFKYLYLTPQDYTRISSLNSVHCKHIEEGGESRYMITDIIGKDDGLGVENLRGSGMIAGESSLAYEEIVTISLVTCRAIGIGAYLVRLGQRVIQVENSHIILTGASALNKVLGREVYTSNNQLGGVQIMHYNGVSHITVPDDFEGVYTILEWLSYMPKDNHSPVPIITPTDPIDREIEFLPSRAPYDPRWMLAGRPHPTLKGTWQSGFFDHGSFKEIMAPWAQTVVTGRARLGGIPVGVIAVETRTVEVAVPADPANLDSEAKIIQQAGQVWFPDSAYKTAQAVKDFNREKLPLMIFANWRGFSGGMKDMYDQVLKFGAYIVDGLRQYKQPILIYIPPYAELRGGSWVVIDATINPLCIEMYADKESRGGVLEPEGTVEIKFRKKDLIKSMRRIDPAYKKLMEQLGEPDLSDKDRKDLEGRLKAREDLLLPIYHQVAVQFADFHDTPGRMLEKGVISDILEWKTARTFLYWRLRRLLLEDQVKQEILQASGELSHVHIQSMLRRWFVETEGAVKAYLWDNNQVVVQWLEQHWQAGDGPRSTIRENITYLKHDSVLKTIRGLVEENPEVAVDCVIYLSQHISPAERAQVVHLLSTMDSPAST
Malonyl CoA formation by acetyl CoA carboxylases is stoichometrically linked to the consumption of ATP. ACC2 activity is measured in a NADH-linked kinetic method measuring ADP generated during the ACC reaction using a coupled lactate dehydrogenase/pyruvate kinase reaction.
The protein is then expressed in insect cells using a baculoviral expression system. Protein purification is performed by anion exchange.
All compounds are dissolved in dimethyl sulfoxide (DMSO) to a concentration of 10 mM.
The enzymatic reaction is then started by addition of a mixture of NADH, acetyl Coenzyme A (both 200 μM f.c.) and ATP (500 uM f.c.). The decrease of the optical density (slope S) is then determined at 25° C. at a wavelength of 340 nm over 15 minutes in a spectrophotometric reader.
Each assay microtiter plate contains wells with vehicle instead of compound as controls for the non-inhibited enzyme (100% CTL; ‘HIGH’) and wells without acetyl-CoA as controls for non-specific NADH degradation (0% CTL; ‘LOW’).
Take `CC(=O)N[C@@H](C)c1ccc(O[C@@H]2CCN(c3ncnc(O[C@@H]4CCOC4)c3F)C2)cc1` [Example 7.38]: the IC50 was 196 nM.

Molecule `CCCc1cnc(N2CC[C@@H](Oc3ccc([C@H](C)NC(C)=O)cc3)C2)nc1` [Example 6.25] returned an IC50 of 714 nM.

As for `C[C@H](NC(=O)N(C)C)c1ccc(O[C@@H]2CCN(c3ncnc(OCC(C)(F)F)c3F)C2)cc1` [Example 3.19], the midpoint of inhibition, the IC50, lay at 155 nM.

For `CC(=O)N[C@@H](C)c1ccc(O[C@@H]2CCN(c3ncnc(NCC4CCCO4)c3Cl)C2)cc1` (stereo partly drawn) [Example 8.313], the IC50 was found to be 306 nM.

For the molecule `CC(=O)N[C@@H](C)c1ccc(O[C@@H]2CCN(c3ccnc(N(C)CC4CCOC4)n3)C2)cc1` (stereo partly drawn) [Example 8.41], inhibition was half-maximal at 286 nM (IC50).

In turn, `CC(=O)N[C@@H](C)c1ccc(O[C@@H]2CCN(c3ccnc(C(F)(F)F)n3)C2)cc1` [Example 6.21] had an IC50 of 303 nM.

`CC(=O)N[C@@H](C)c1ccc(O[C@@H]2CCN(c3ncnc(OCC4CC4)c3C)C2)cc1` [Example 7.25] had a concentration for half-maximal inhibition (IC50) of 67 nM.

In turn, `CC(=O)N[C@@H](C)c1ccc(O[C@@H]2CCN(c3nc(N4CCOC(C(F)(F)F)C4)ncc3Cl)C2)cc1` (stereo partly drawn) [Example 8.174] yielded an IC50 of 170 nM.

The molecule `CC(=O)N[C@@H](C)c1ccc(O[C@@H]2CCN(c3nc(N(C)C4CCCC4)ncc3C#N)C2)cc1` [Example 8.33] showed an IC50 of 1060 nM.

As for `CCN(CCC#N)c1nccc(N2CC[C@@H](Oc3ccc([C@H](C)NC(C)=O)cc3)C2)n1` [Example 8.72], half-maximal inhibition (IC50) required 167 nM.

The molecule `CC(=O)N[C@@H](C)c1ccc(O[C@@H]2CCN(c3ncc(C4CCCC4)cn3)C2)cc1` [Example 6.18] gave an IC50 of 935 nM.

Turning to `CC(=O)N[C@@H](C)c1ccc(O[C@@H]2CCN(c3ccnc(N(CCC#N)C4CCCC4)n3)C2)cc1` [Example 8.108], the IC50 came out at 375 nM.

Consider `CC(=O)N[C@@H](C)c1ccc(O[C@@H]2CCN(c3ccnc(N4CCCC4C)n3)C2)cc1` (stereo partly drawn) [Example 8.16], for which the midpoint of inhibition, the IC50, lay at 354 nM.

On to `CC(=O)N[C@@H](C)c1ccc(O[C@@H]2CCN(c3nc(N(C)C(C)C)ncc3Cl)C2)cc1` [Example 8.141], for which the half-maximal inhibitory concentration (IC50) turned out to be 148 nM.

With `COCCN(C)c1ncc(Cl)c(N2CC[C@@H](Oc3ccc([C@H](C)NC(C)=O)cc3)C2)n1` [Example 8.130], the half-maximal inhibitory concentration (IC50) worked out at 79 nM.

Consider `CC(=O)N[C@@H](C)c1ccc(O[C@@H]2CCN(c3nc(N(C)CC4CCOC4)ncc3Cl)C2)cc1` (stereo partly drawn) [Example 8.54], for which half-maximal inhibition (IC50) was put at 125 nM.

On to `CC(=O)N[C@@H](C)c1ccc(O[C@@H]2CCN(c3ncnc(OCC4CC4(F)F)c3Cl)C2)cc1` (stereo partly drawn) [Example 7.40], for which the IC50 was determined as 42 nM.

For `CCN(C)c1ncc(F)c(N2CC[C@@H](Oc3ccc([C@H](C)NC(C)=O)cc3)C2)n1` [Example 8.31], 95 nM corresponded to half-maximal inhibition (IC50).

Regarding `CC(=O)N[C@@H](C)c1ccc(O[C@@H]2CCN(c3ccnc(N4CCOC(C(F)(F)F)C4)n3)C2)cc1` (stereo partly drawn) [Example 8.88], the concentration for half-maximal inhibition (IC50) is 130 nM.

Take `CC(=O)N[C@@H](C)c1ccc(O[C@@H]2CCN(c3nc(N(C)C4CCC4)ncc3F)C2)cc1` [Example 8.190]: the IC50 worked out at 41 nM.

For `CC(=O)N[C@@H](C)c1ccc(O[C@@H]2CCN(c3ccnc(N(C)CCC(F)(F)F)n3)C2)cc1` [Example 8.206], the half-maximal inhibitory concentration (IC50) is 75 nM.

The molecule `CCCNc1ncnc(N2CC[C@@H](Oc3ccc([C@H](C)NC(C)=O)cc3)C2)c1OC` [Example 8.301] had a 50% inhibitory concentration (IC50) of 809 nM.

Consider `C[C@H](NC(=O)N(C)C)c1ccc(OC2CCN(c3ccnc(N4CCOCC4)n3)C2)cc1` (stereo partly drawn) [Example 3.2], for which half-maximal inhibition (IC50) was put at 227 nM.

For the molecule `CCCOc1ncnc(N2CC[C@@H](Oc3ccc([C@H](C)NC(C)=O)cc3)C2)c1OC` [Example 7.51], the half-maximal inhibitory concentration (IC50) amounted to 392 nM.

Consider `COc1c(OCC2CC2)ncnc1N1CC[C@@H](Oc2ccc([C@H](C)NC(C)=O)cc2)C1` [Example 7.59], for which half-maximal inhibition (IC50) required 39 nM.

On to `CCC(C)Nc1ncnc(N2CC[C@@H](Oc3ccc([C@H](C)NC(C)=O)cc3)C2)c1Cl` (stereo partly drawn) [Example 8.314], for which the half-maximal inhibitory concentration (IC50) was found to be 345 nM.

`CCN(CC)c1ncc(F)c(N2CC[C@@H](Oc3ccc([C@H](C)NC(C)=O)cc3)C2)n1` [Example 8.26]: it took 69 nM to reach half-maximal inhibition (IC50).

`COC[C@@H](C)N(C)c1ncc(F)c(N2CC[C@@H](Oc3ccc([C@H](C)NC(C)=O)cc3)C2)n1` [Example 8.150] showed an IC50 of 159 nM.

Take `CO[C@@H]1CCN(c2ncnc(N3CC[C@@H](Oc4ccc([C@H](C)NC(C)=O)cc4)C3)c2F)C1` [Example 8.234]: half-maximal inhibition (IC50) was put at 898 nM.

`CC(=O)N[C@@H](C)c1ccc(O[C@@H]2CCN(c3ncnc(N4CCC(C)(O)C4)c3Cl)C2)cc1` (stereo partly drawn) [Example 8.297] gave an IC50 of 224 nM.

Regarding `CC(=O)N[C@@H](C)c1ccc(O[C@@H]2CCN(c3ncnc(N4CCCC(F)(F)C4)c3F)C2)cc1` [Example 8.161], inhibition was half-maximal at 384 nM (IC50).

Molecule `C[C@H](NC(=O)c1cncs1)c1ccc(O[C@@H]2CCN(c3ncc(OCC4CC4(F)F)cn3)C2)cc1` (stereo partly drawn) [Example 6.15] showed an IC50 of 220 nM.

For the molecule `CCN(C)c1nccc(N2CCC(Oc3ccc([C@H](C)NC(=O)c4sc(NC(=O)COC)nc4C)cc3)C2)n1` (stereo partly drawn) [Example 2.9], the concentration for half-maximal inhibition (IC50) amounted to 300 nM.

On to `CC(=O)N[C@@H](C)c1ccc(O[C@@H]2CCN(c3ncnc(N(C)CC4CCOC4)c3F)C2)cc1` (stereo partly drawn) [Example 8.122], for which the concentration for half-maximal inhibition (IC50) came out at 547 nM.

`CC(=O)N[C@@H](C)c1ccc(O[C@@H]2CCN(c3ccnc(N(CCC#N)C4CC4)n3)C2)cc1` [Example 8.107] yielded a 50% inhibitory concentration (IC50) of 522 nM.

Turning to `CCC(=O)N[C@@H](C)c1ccc(OC2CCN(c3ccnc(N(C)CC)n3)C2)cc1` (stereo partly drawn) [Example 2.13], the IC50 was found to be 85 nM.

`CC(=O)N[C@@H](C)c1ccc(O[C@@H]2CCN(c3ncnc(N4CC[C@@H](F)C4)c3F)C2)cc1` [Example 8.287] showed a half-inhibitory concentration (IC50) of 455 nM.

`CCN(CC)c1ncc(C#N)c(N2CC[C@@H](Oc3ccc([C@H](C)NC(C)=O)cc3)C2)n1` [Example 8.35] had a 50% inhibitory concentration (IC50) of 824 nM.

For `CC(=O)N[C@@H](C)c1ccc(O[C@@H]2CCN(c3ccnc(N4CC(F)(F)C(F)(F)C4)n3)C2)cc1` [Example 8.74], half-maximal inhibition (IC50) was put at 115 nM.

Take `CC(=O)N[C@@H](C)c1ccc(O[C@@H]2CCN(c3ncnc(C4CCCC4)c3F)C2)cc1` [Example 9.4]: the IC50 was 464 nM.

`CC(=O)N[C@@H](C)c1ccc(O[C@@H]2CCN(c3nc(OCC4(C)CC4)ncc3F)C2)cc1` [Example 7.18] had a concentration for half-maximal inhibition (IC50) of 565 nM.

Consider `C[C@H](NC(=O)N(C)C)c1ccc(OC2CCN(c3ncnc(OCC(C)(C)O)c3F)C2)cc1` (stereo partly drawn) [Example 3.15], for which the concentration for half-maximal inhibition (IC50) was determined as 278 nM.

Take `COC(C)(C)COc1ncnc(N2CC[C@@H](Oc3ccc([C@H](C)NC(C)=O)cc3)C2)c1Cl` [Example 7.60]: the IC50 amounted to 145 nM.

In turn, `C[C@H](NC(=O)N(C)C)c1ccc(OC2CCN(c3ccnc(N(C)CC(F)F)n3)C2)cc1` (stereo partly drawn) [Example 3.1] returned a half-maximal inhibitory concentration (IC50) of 40 nM.

`CC(=O)N[C@@H](C)c1ccc(O[C@@H]2CCN(c3nc(N(C)CC(F)F)ncc3Cl)C2)cc1` [Example 8.136] registered a concentration for half-maximal inhibition (IC50) of 70 nM.

The molecule `CCN(C)c1nccc(N2CCC(Oc3ccc([C@H](C)NC(=O)c4cnoc4C)cc3)C2)n1` (stereo partly drawn) [Example 2.18] returned an IC50 of 130 nM.

In turn, `CC(=O)N[C@@H](C)c1ccc(O[C@@H]2CCN(c3ccnc(N(C)C4CC4)n3)C2)cc1` [Example 8.19] had a half-inhibitory concentration (IC50) of 475 nM.

In the case of `CC(=O)N[C@@H](C)c1ccc(O[C@@H]2CCN(c3nc(N(C)C(C)C)ncc3F)C2)cc1` [Example 8.63], the 50% inhibitory concentration (IC50) is 71 nM.

Molecule `CC(=O)N[C@@H](C)c1ccc(O[C@@H]2CCN(c3nc(N4CC5COCC5C4)ncc3F)C2)cc1` (stereo partly drawn) [Example 8.272] yielded an IC50 of 1190 nM.

With `CCN(C)c1nccc(N2CC[C@@H](Oc3ccc([C@H](C)NC(=O)C(F)F)cc3)C2)n1` [Example 5.1, N—((S)-1-(4-((R)-1-(2-(ethyl(methyl)amino)pyrimidin-4-yl)pyrrolidin-3-yloxy)phenyl)ethyl)-2,2-difluoroacetamide], half-maximal inhibition (IC50) required 59 nM.

In the case of `CC(=O)N[C@@H](C)c1ccc(O[C@@H]2CCN(c3nc(N4C[C@@H]5CC[C@@H](C4)O5)ncc3Cl)C2)cc1` [Example 8.280], half-maximal inhibition (IC50) was put at 1230 nM.

Consider `CC(=O)N[C@@H](C)c1ccc(O[C@@H]2CCN(c3nc(N4CC(C)C4)ncc3Cl)C2)cc1` [Example 8.219], for which it took 355 nM to reach half-maximal inhibition (IC50).

The molecule `CCCNc1ncnc(N2CC[C@@H](Oc3ccc([C@H](C)NC(=O)c4sc(NC(=O)CC)nc4C)cc3)C2)c1OC` [Example 8.320] showed a 50% inhibitory concentration (IC50) of 742 nM.

Regarding `CCNC(=O)N[C@@H](C)c1ccc(O[C@@H]2CCN(c3nc(N4CCOCC4)ncc3F)C2)cc1` [Example 3.20], the IC50 came out at 576 nM.

With `CC(=O)N[C@@H](C)c1ccc(O[C@@H]2CCN(c3nc(N(C)C4CCC4)ncc3Cl)C2)cc1` [Example 8.267], the concentration for half-maximal inhibition (IC50) was found to be 64 nM.

On to `CCNc1ncnc(N2CC[C@@H](Oc3ccc([C@H](C)NC(C)=O)cc3)C2)c1F` [Example 8.118], for which the IC50 was 2460 nM.

Consider `CC(=O)N[C@@H](C)c1ccc(O[C@@H]2CCN(c3ncnc(N(C)C4CC4)c3F)C2)cc1` [Example 8.133], for which half-maximal inhibition (IC50) required 299 nM.

As for `CC(=O)N[C@@H](C)c1ccc(O[C@@H]2CCN(c3ccnc(N4CC5(CCC5)C4)n3)C2)cc1` [Example 8.75], the IC50 is 358 nM.

The molecule `CC(=O)N[C@@H](C)c1ccc(O[C@@H]2CCN(c3ncnc(N4CCC(CO)C4)c3F)C2)cc1` (stereo partly drawn) [Example 8.202] displayed a half-inhibitory concentration (IC50) of 721 nM.

`CC(=O)N[C@@H](C)c1ccc(O[C@@H]2CCN(c3ncnc(OCC(F)F)c3Cl)C2)cc1` [Example 7.57] displayed a concentration for half-maximal inhibition (IC50) of 109 nM.
